# From patent US20250170114A1, “METHODS OF TREATMENT USING T-TYPE CALCIUM CHANNEL MODULATORS” (Praxis Precision Medicines, Inc., priority 2022, published 2025)
# “Also recorded” adds a separate entry of the source.
# Key:
# [1] = system: harmaline-induced motor impairment in male SD rats; assay: Rotarod test with harmaline in SD rats; format: in vivo, rat; settings: harmaline 30 mg/kg, 10 mg/kg
# Protocol: (§1) Each of six groups of male SD rats were subjected to a tremor assessment, followed by three ADL-like measures including open field test, rotarod test, and wire grip test after receiving doses of either vehicle, Formula (I), or propranolol, followed by either saline or harmaline, as outlined below in Table 22 below.
# Fifteen minutes after the open field test, the rats were subjected to a rotarod test. The speed of the rotarod increased from 10 rpms to 60 rpms within the first five minutes of the test. FIG. 9 is a bar graph showing the mean of latency to fall in the rotarod test measured in rats that were administered 30 mg/kg harmaline and also administered 10 mg/kg propranolol or 1 mg/kg, 3 mg/kg or 10 mg/kg study drug.
# [2] = system: harmaline-induced motor impairment in male SD rats; assay: Wire grip test with harmaline in SD rats; format: in vivo, rat; settings: harmaline 30 mg/kg, 10 mg/kg, reference compound
# Source text: as §1
# Fifteen minutes after the rotarod test, rats were subjected to a wire grip test using an 80 cm long and 7 mm in diameter wire placed at a height of 50 cm.
# [3] = system: harmaline-induced tremor in male SD rats; assay: Tremor assessment (tremor score 0-4) with harmaline in SD rats; format: in vivo, rat; settings: harmaline 30 mg/kg, 10 mg/kg
# Source text: as §1, with “below. Twenty minutes after administration of harmaline or saline, the rats were subjected to a tremor assessment using the score criteria outlined in the table below.” for “below.”
# [4] = system: harmaline-induced decrease in travelling distance in male SD rats; assay: Open field test with harmaline in SD rats; format: in vivo, rat; settings: harmaline 30 mg/kg, 10 mg/kg
# Protocol: as §1
# Fifteen minutes after the tremor assessment, the rats were subjected to an open field test. FIG. 8 is a bar graph showing the traveling distance in 0-5 minutes (mm) measured in rats that were administered 30 mg/kg harmaline and also administered 10 mg/kg propranolol or 1 mg/kg, 3 mg/kg or 10 mg/kg study drug.
# [5] = Plasma and brain tissue concentrations in rats after harmaline testing; format: in vivo, rat; settings: collected immediately after harmaline testing
# Protocol: Plasma and brain tissue sample collection (at 90 min post dosing of study compound) was evaluated in […]. N=15 in each group. Plasma and brain tissue samples were collected immediately after harmaline testing. Plasma sample number: 5×15=75. Brain tissue sample number: 5×15=75.
# [6] = system: rat spontaneous locomotor activity (sLMA); assay: Rat spontaneous locomotor activity (sLMA) assay; format: in vivo; settings: rats, 0-30 min; compound of Formula (I) 1 mg/kg p.o., propranolol 1 or 3 mg/kg i.p., alone or in combination
# Protocol: […] Rat sLMA was measured from 0-30 min (0 minutes is 60 minutes after administration of the compound of Formula (I) and 20 minutes after administration of propranolol).
smiles,measurement,setting,value
"CC(C)NCC(O)COc1cccc2ccccc12 (stereo not drawn) [propranolol, reference compound]",latency to fall in rotarod test vs vehicle and harmaline only,[1],failed to display any significant improvement; also recorded: no effect
same,latency to fall in wire grip test,[2],significant reduction in motor impairment; also recorded: significantly attenuated
same,average tremor score vs vehicle and harmaline only,[3],significantly lower; also recorded: significantly inhibited
same,harmaline-induced decrease in spontaneous locomotor activity in the open field,[4],no effect
same,plasma and brain concentrations,[5],consistent with those measured in previous studies
same,total sLMA (total distance travelled),[6],do not significantly reduce
